The source of these data is patent US10457619B2, “Resorcinol derivatives for cosmetic use thereof” (L'OREAL, priority 2015, dated 2019).

One assay has as its system normal human melanocytes. Put plainly: Activity on constitutive melanogenesis: melanin production by normal human melanocytes in vitro. It is filed as cell-based. The following applies: Melanocyte, 72 hours incubation, optical density, maximum concentration tested 200 μM, read-out: IC50 (μM): concentration at which a 50% decrease in melanin synthesis is achieved. How it is done: For the evaluations of the effect of preventing or decreasing pigmentation of the skin and/or of lightening of this skin, the examples are performed in the following manner.
The measurement of the depigmenting activity (reduction of melanin production) of compounds of formula (I) was performed by assaying normal human melanocytes in vitro as follows.
First of all, normal human melanocytes were cultured and dispensed into 384 wells. After 24 hours, the culture medium was replaced with a medium containing compounds of formula (I) to be evaluated. The cells were incubated for 72 hours before measurement of the final optical density, which measures the amount of melanin produced by the melanocytes. A dose effect was performed using a wide concentration range of the compounds evaluated. Thus, by making the concentrations and the melanin measurements correspond, it was possible to determine an IC50 in μM: concentration at which a 50% decrease in melanin synthesis is achieved.
Consider `CC(=O)OCCC(C)c1ccc(OC(C)=O)cc1OC(C)=O` (stereo not drawn) [Compound 2, 4-[4-(acetyloxy)but-2-yl]benzene-1,3-diyl diacetate], for which the IC50 came out at 4.08 µM.

For `CC(CCO)c1ccc(O)cc1O` (stereo not drawn) [Compound 1, 4-(3-hydroxy-1-methylpropyl) benzene-1,3-diol], the IC50 was determined as 3.61 µM. Still for that read-out and setting: the same measure for `OCCCc1ccc(O)cc1O` [compound (A), reference compound]: 23.4 µM. Same read-out and setting: under `CC(=O)OCCC(C)c1ccc(O)cc1O` (stereo not drawn) [Compound 3, 3-(2,4-dihydroxyphenyl) butyl acetate] stands 4.96 µM.

Another assay relates to pigmented reconstructed epidermides (keratinocytes and melanocytes of European origin, Episkin). Put plainly: Depigmenting activity on pigmented reconstructed epidermis (melanin quantified by image analysis, Fontana-Masson stain). It is filed as cell-based, human. As to conditions: compounds at 30 μM in DMSO, added to culture medium. How it is done:
The aim of this test is to evaluate the modulation of melanogenesis in pigmented reconstructed epidermides after “systemic” application of the products. • The compounds are tested at 30 μM in DMSO. • The pigmented epidermides are reconstructed using keratinocytes and melanocytes of European origin seeded on the substrate BPER (Episkin). The test products are added to the culture medium immediately on seeding the cells and at all the changes of medium.
The pigmented reconstructed epidermis standard study model was published by:
Regnier M., Duval C., Galey J. B., Philippe M., Lagrange A., Tuloup R., Schmidt R., Cellular and Molecular Biology, 1999, 45, 7, 969-980: “Keratinocyte-melanocyte co-cultures and pigmented reconstructed human epidermis: models to study modulation of melanogenesis”.
The melanin was quantified by image analysis on histological sections after revelation with Fontana-Masson stain. Each stained epidermis is photographed over its entire length using a camera connected to a microscope.
The decrease in the amount of melanin is evaluated relative to the solvent (DMSO)
In the case of `CC(CCO)c1ccc(O)cc1O` (stereo not drawn) [Compound 1, 4-(3-hydroxy-1-methylpropyl) benzene-1,3-diol], the “Depigmenting activity/DMSO (decrease in the amount of melanin relative to the solvent)” value is on record as −59%.

In the case of `CCCCc1ccc(O)cc1O` [Lucinol, reference compound], the “Depigmenting activity/DMSO (decrease in the amount of melanin relative to the solvent)” value is −41%.
